Laboratory results taken from US20150148383A1, “Methods for Inhibiting or Reversing Epiretinal Membrane Formation” (Regenerative Research Foundation, priority 2013, published 2015).

What was measured:
RPE cells [1] = assay: RPE morphology in vitro by light microscopy; assay type: cell-based, human; details: 10 mM nicotinamide vs no nicotinamide
Excerpt: (§1) Primary adult RPE cells were obtained from cadaveric human eyes under IRB-approved protocols, within 36-hours of the time of death. The anterior half of the eye was removed followed by the vitreous, and retina, isolating the posterior eyecup with the RPE/Bruch's membrane/choroid complex intact (as described in Blenkinsop T A, et al. The culture and maintenance of functional retinal pigment epithelial monolayers from adult human eye. 2012; Salero E et al. Adult human RPE can be activated into a multipotent stem cell that produces mesenchymal derivatives. Cell Stem Cell. 2012; 10(1):88-95). […] Once the primary (passage zero) cells reached confluence (˜20 days), the FBS concentration was reduced to 5%. Then, following the protocol developed by Salero S et al., 2012 (supra), the RPE were activated to proliferate in RPE medium with 5% FBS. The expanded RPE cells were plated at 30,000 cells per well in a 24-well plate and cultured in DMEM/F12, 5% FBS. Proliferation rates were measured by manual and/or automated counting of cell number as a function of time.
Cultures were imaged at 32× on a Zeiss Observer.D1 fluorescent microscope.
Cultured RPE cells were analyzed by light microscopy.

RPE cells [2] = assay: RPE cell proliferation assay (Ki67 immunostaining, cell number); assay type: cell-based, human; details: 10 mM nicotinamide; 5 days in DMEM/F12, 5% FBS
Excerpt: as §1
Cells were fixed with 4% paraformaldehyde for 15 minutes, permeabilized with 0.2% Triton in PBS, blocked with 1% BSA for 30 minutes. Primary antibodies were used at 1:100 dilution in PBS. […]
RPE cells were plated at 30,000 cells per well in a 24 well plate and cultured for 5 days in DMEM/F12, 5% FBS and cell proliferation was measured.

RPE cells [3] = assay: Dose response for prevention of epithelial to mesenchymal transition, SNAIL staining read-out; assay type: cell-based, human; details: all concentrations: 10 μM, 100 μM, 1 mM or 10 mM nicotinamide; 5 days
Protocol: Cells were fixed with 4% paraformaldehyde for 15 minutes, permeabilized with 0.2% Triton in PBS, blocked with 1% BSA for 30 minutes. Primary antibodies were used at 1:100 dilution in PBS. The corresponding Alexafluor 647 secondary antibodies were used for the respective primary antibody and imaged on a Zeiss Observer.D1 fluorescent microscope. A dose response curve for the effect of nicotinamide on the prevention of epithelial to mesenchymal transition was determined using SNAIL expression as a read-out. RPE cells were cultured at 30,000 cells/well in a 24 well plate and cultured for 5 days in the presence of media containing 10 μM, 100 μM, 1 mM or 10 mM nicotinamide or control (no nicotinamide). The media was changed 3 times, and replaced with media containing the same concentration of nicotinamide, after which the cells were fixed and stained with fluorescently-labeled anti-SNAIL antibody. At all concentrations, SNAIL staining was decreased by application of nicotinamide.

Adult human RPE [4] = assay: Transepithelial resistance (TER) of RPE on transwells; assay type: cell-based; details: measured weekly for one month; presence vs absence of nicotinamide
Protocol: The transepithelial resistance (TER) is measured during and after treatment of hRPE cells cultured in 12-well 0.4 μm transwell inserts using the EVOM2 World Precision Instruments Volt Ohm Meter protocol. Resistance is measured in Ω-cm^2 and recorded prior to treatment to confirm that all wells are at approximately the same TER. The TER of a cell-free transwell insert of ˜110 Ω-cm^2 is subtracted to obtain the resistance of the cellular epithelium. TER is measured in each well after treatment to assess the change caused by nicotinamide. Adult human RPE were plated on semi-permeable polyester transwells and transepithelial resistance was measured weekly for one month.

Adult human RPE [5] = assay: Oxidative stress analysis: TBHP-induced TIMP-3 expression; details: 500 μM TBHP 2 hours daily; presence vs absence of nicotinamide; quantitative PCR
adult human RPE cells = assay: Gene expression analysis by real time PCR of RPE and mesenchymal markers; assay type: cell-based; details: 10 mM nicotinamide, relative to control
human RPE cells = assay: ZO-1 tight junction protein immunostaining; assay type: cell-based
Protocol: Cells were fixed with 4% paraformaldehyde for 15 minutes, permeabilized with 0.2% Triton in PBS, blocked with 1% BSA for 30 minutes. Primary antibodies were used at 1:100 dilution in PBS. The corresponding Alexafluor 647 secondary antibodies were used for the respective primary antibody and imaged on a Zeiss Observer.D1 fluorescent microscope.

[6] = system: fibroblastic cultures derived from RPE; assay: Reversal of epithelial to mesenchymal transition in fibroblastic cultures derived from RPE; assay type: cell-based, human; details: 10 mM nicotinamide, media changed 3 times a week; micrograph at 8 weeks
Protocol: Epithelial to mesenchymal transition (EMT) was determined in fibroblastic cultures as follows: cells were plated 30,000 cells per 1 cm^2 tissue culture plate in DMEM/F12 with 5% FBS with the addition of 10 ng/ml TGFβ and 10 ng/ml TNFα to induce epithelial to mesenchymal transition (EMT). The extent of EMT was determined by the morphologic changes and immunohistochemical stains described above. Epithelial cells were plated at 30,000 cells/cm^2 and cultured until confluent (left image), after which 10 mM nicotinamide was added to the media, which was changed 3 times a week for 8 weeks (FIG. 10). The swirling fibroblastic morphology seen prior to addition of nicotinamide seen at the ‘3 week’ stage indicate the RPE cells have undergone EMT, losing their cobblestone morphology.

For `NC(=O)c1cccnc1` [nicotinamide, Nicotinamide], the RPE cell morphology (RPE cells [1]) was “maintained their characteristic cobblestone morphology”, the “immunostaining for the cell proliferation marker Ki67” value (RPE cells [2]) was “decreased immunostaining” and the total cell number (RPE cells [2]) was “decrease in the total cell number”. The SNAIL staining (RPE cells [3]) was “decreased”, the transepithelial resistance (Adult human RPE [4]) was “increased over time” and the “TBHP-induced TIMP3 expression relative to day 0” value (Adult human RPE [5]) was “suppressed”. The “MITF mRNA expression (RPE marker)” value (adult human RPE cells) was “increased”, the “RPE65 mRNA expression (RPE marker)” value (adult human RPE cells) was “increased” and the “SLUG mRNA expression (mesenchymal marker)” value (adult human RPE cells) was “decreased”. For the same compound, the “SNAIL mRNA expression (mesenchymal marker)” value (adult human RPE cells) was “decreased”, the “TWIST mRNA expression (mesenchymal marker)” value (adult human RPE cells) was “decreased” and the “pattern of ZO-1 expression” value (human RPE cells; 10 mM nicotinamide vs control RPE cells) was “localized expression of tight junction protein ZO-1 peripherally around the cell borders”. The “ZO1 staining (junctional marker)” value (human RPE cells; 10 mM nicotinamide vs no nicotinamide) was “high levels of ZO1 staining” and the “cell morphology after EMT (reversal of EMT)” value [6] was “revert to their physiologic cobblestone morphology”.
